Source: patent US12539289B2, “Phorbol ester compositions and methods of use for treating or reducing the duration of cytopenia” (BIOSUCCESS BIOTECH CO., LTD., priority 2014, dated 2026)
Several values for one entry are separate records, joined by “and”; a condition that tells them apart may be missing. Equal entries are not always repeated.

What was measured:
[1] = test system: Human bone marrow cells from the same AML patient after chemotherapy; assay: Colony formation of bone marrow hematopoietic cells in methyl cellulose semi-solid culture medium; assay type: cell-based
Protocol: (§1) To explore the effect of TPA alone or combined rhG-CSF on bone marrow hematopoietic cells proliferation and colony formation ability which from patients of acute myeloid leukemia (AML) in the period of bone marrow suppression in vitro and to observe the effect of TPA on bone marrow stromal cells(BMSCs) proliferation or inhibition from patients of AML in the period of myelosuppression and the healthy persons.
• 1) Human bone marrow cells from the same AML patient after chemotherapy were cultured by methyl cellulose semi-solid culture medium. Groups: Blank, TPA (10 ng/ml), G-CSF (50 ng/ml), TPA (10 ng/ml)+GCSF (50 ng/ml). The experiments were repeated for 4 times. • 2) The stroma cells of bone marrow from the healthy human and the AML patient after chemotherapy were cultured by methyl cellulose semi-solid culture medium. Different TPA concentrations were added. Groups: Blank, TPA (0.1 ng/ml), TPA (1.0 ng/ml), TPA (5 ng/ml), TPA (10 ng/ml), TPA (20 ng/ml), TPA (30 ng/ml). • 3) Cultivation of BMSCs from healthy persons and patients of AML in the bone marrow suppression phase in vitro, added to TPA of different concentrations, 0.1 ng/ml, 1.0 ng/ml, 5 ng/ml, 10 ng/ml, 20 ng/ml, 30 ng/ml, and set up a control to detect cell proliferation or inhibition with CCK8 method. Results and Conclusion: • 1. Compared the clones of four groups in incomplete medium, in the control group a small cell clusters can be seen for 24-72 hours, but the cells were dead as time prolong. Cultivated 14 days, control group have no clones formation, CFU-GM are dominated for G-CSF group, TPA alone and combination with G-CSF group have myeloid colony formation, while BFU-E and CFU-GEMM. […] Compared the clones of different concentration of TPA stimulation in incomplete medium, the total clones of 5 ng/ml, 10 ng/ml, 20 ng/ml group are higher than other groups, including 10 ng/ml in the highest, there are statistical significance (both P<0.05). While decreasing or increasing TPA concentration can not improve the colony number. The better concentration of TPA to stimulate the colony formation is 5˜20 ng/ml. […] Compared the clones of different concentration of TPA and G-CSF (50 ng/ml) stimulation in incomplete medium. Combination with G-CSF the better concentration of TPA is 1˜10 ng/ml (both P<0.05). Combination with G-CSF the best concentration of TPA is 5 ng/ml and 1 ng/ml. for CFU-GM and CFU-GEMM. The main clone types are myeloid colones, CFU-GM, also have CFU-GEMM and fewer BFU-E. • 4. […] While TPA group and G-CSF group the number of clones of TPA group and G-CSF group have no statistical significance (P=0.577). • 5. […] Meanwhile, TPA promote bone marroe stromal cells from the AML patients proliferation of concentration 5˜30 ng/ml (cell number 2×10^5/ml). 5 ng/ml of TPA is the best concentration of promoting proliferation, and G-CSF had no effect on the growth of BMSCs from healthy persons or AML patients.

[2] = test system: bone marrow stromal cells (BMSCs) from healthy persons; assay: BMSC proliferation or inhibition, CCK8 method, healthy persons; assay type: cell-based, human; conditions: BMSCs of the healthy human and the AML patient after chemotherapy
Protocol: as §1
(§2) • 1) Human bone marrow cells from the same AML patient after chemotherapy were cultured by methyl cellulose semi-solid culture medium. Groups: Blank, TPA (10 ng/ml), G-CSF (50 ng/ml), TPA (10 ng/ml)+GCSF (50 ng/ml). The experiments were repeated for 4 times. • 2) The stroma cells of bone marrow from the healthy human and the AML patient after chemotherapy were cultured by methyl cellulose semi-solid culture medium. Different TPA concentrations were added. Groups: Blank, TPA (0.1 ng/ml), TPA (1.0 ng/ml), TPA (5 ng/ml), TPA (10 ng/ml), TPA (20 ng/ml), TPA (30 ng/ml). • 3) Cultivation of BMSCs from healthy persons and patients of AML in the bone marrow suppression phase in vitro, added to TPA of different concentrations, 0.1 ng/ml, 1.0 ng/ml, 5 ng/ml, 10 ng/ml, 20 ng/ml, 30 ng/ml, and set up a control to detect cell proliferation or inhibition with CCK8 method. Results and Conclusion: • 1. […]

[3] = test system: bone marrow stromal cells (BMSCs) from patients of AML in the bone marrow suppression phase; assay: BMSC proliferation or inhibition, CCK8 method, AML patients; assay type: cell-based, human
Protocol: as §1, §2

In the case of CCCCCCCCCCCCCC(=O)O[C@@H]1[C@@H](C)[C@@]2(O)[C@@H](C=C(CO)C[C@]3(O)C(=O)C(C)=C[C@@H]23)[C@@H]2C(C)(C)[C@]12OC(C)=O [TPA, 12-O-tetradecanoylphorbol-13-acetate], the “best concentration for hematopoietic cell clone formation (highest total clones)” value ([1]; TPA alone, incomplete medium) was 10 ng/mL, the “colony types whose formation is promoted (CFU-GM, CFU-GEMM, BFU-E)” value ([1]; bone marrow of AML patients in the period of bone marrow suppression, in vitro) was “promoted the formation of CFU-GM, CFU-GEMM, and BFU-E” and the “total number of clones” value ([1]; incomplete medium, cultivated 14 days, TPA 10 ng/ml, G-CSF 50 ng/ml) was “higher than G-CSF group”. For the same molecule, the “optimal concentrations for growth of stroma cells of bone marrow (BMSCs)” value [2] was 5 ng/mL and 10 ng/mL and the “best concentration of promoting proliferation of BMSCs” value [3] was 5 ng/mL.
